Reference: patent publication US20220220095A1, “N-((HETEROARYL)METHYL)-1-TOSYL-1H-PYRAZOLE-3-CARBOXAMIDE DERIVATIVES AS Kv3 POTASSIUM CHANNEL ACTIVATORS FOR TREATING NEUROLOGICAL AND [sequence] DISORDERS” (H. Lundbeck A/S, priority 2019, published 2022)

Target: T1, hKv3.1b (Homo sapiens, UniProt P48547)
T1 construct: expressed in transfected cells
T1 sequence (P48547 1-585 isoform P48547-2): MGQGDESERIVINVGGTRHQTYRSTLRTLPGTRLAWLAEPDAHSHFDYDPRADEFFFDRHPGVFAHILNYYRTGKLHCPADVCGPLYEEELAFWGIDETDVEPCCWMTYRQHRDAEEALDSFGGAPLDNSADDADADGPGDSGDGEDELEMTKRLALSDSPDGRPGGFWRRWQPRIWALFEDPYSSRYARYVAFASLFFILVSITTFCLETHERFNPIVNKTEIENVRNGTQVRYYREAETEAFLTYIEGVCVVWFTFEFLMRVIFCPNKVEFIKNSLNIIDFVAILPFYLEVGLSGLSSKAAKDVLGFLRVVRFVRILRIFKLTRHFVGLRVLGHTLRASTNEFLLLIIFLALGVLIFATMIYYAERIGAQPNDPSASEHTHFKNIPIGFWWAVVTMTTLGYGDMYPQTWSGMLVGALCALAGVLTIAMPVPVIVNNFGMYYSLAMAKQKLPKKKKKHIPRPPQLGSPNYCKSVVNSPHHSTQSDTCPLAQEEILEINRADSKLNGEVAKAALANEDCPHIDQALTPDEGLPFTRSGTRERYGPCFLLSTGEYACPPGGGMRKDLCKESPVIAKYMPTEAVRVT
Assay: Automated whole-cell patch-clamp (QPatch-16x) on HEK-293 cells stably expressing hKv3.1b: shift of voltage threshold for channel activation
Type: cell-based
Details: HEK-293 hKv3.1b; for ECdelta5mV: concentration needed to shift the threshold 5 mV, read out from fitted concentration response curve; for Max Delta threshold: maximum absolute shift of activation threshold to more hyperpolarized potentials at the tested concentrations (0.37, 1.11, 3.33, 10, 30 μM)
Method: HEK-293 cells stably expressing hKv3.1b was used for the experiments. Cells were cultured in DMEM medium supplemented with 10% Fetal Bovine Serum, 100 ug/mL Geneticidin and 100 u/mL Penicillin/Streptomycin (all from Gibco). Cells were grown to 80-90% confluency at 37° C. and 5% CO2. On the day of the experiment the cells were detached from the tissue culture flasks by Detachin and resuspended in serum free medium containing 25 mM HEPES and transferred to the cell hotel of the QPatch. The cells were used for experiments 0-5 hours after detachment.
Patch-clamp recordings were performed using the automated recording system QPatch-16x (Sophion Bioscience, Denmark). Cells were centrifuged, SFM removed and the cells were resuspended in extracellular buffer containing (in mM): 145 NaCl, 4 KCl, 1 MgCl2, 2 CaCl2, 10 HEPES and 10 glucose (added fresh on the day of experiment); pH 7.4 adjusted with NaOH, 305 mOsm adjusted with sucrose.
Single cell whole-cell recordings were carried out using an intracellular solution containing (in mM): 120 KCl, 32.25/10 KOH/EGTA, 5.374 CaCl2, 1.75 MgCl2, 10 HEPES, 4 Na2ATP (added fresh on the day), pH 7.2 adjusted with KOH, […] adjusted with sucrose. Cell membrane potentials were held at −80 mV and currents were evoked by voltage steps (200 ms duration) from −70 mV to +10 mV (in 10 mV increments).
Leak subtraction protocol was applied at −33% of the sweep amplitude, and serial resistance values were constantly monitored.
Any cell where serial resistance exceeded 25 MOhm, membrane resistance less than 200 MOhm or current size at −10 mV less than 200 pA was eliminated from the subsequent analysis.
Data analysis was performed using Sophion's QPatch assay software in combination with Microsoft Excel™ (Redmond, Wash., USA).
Current voltage relationships were plotted from the peak current at the individual voltage steps normalized to the vehicle addition at 10 mV. The voltage threshold for channel activation was defined as 5% activation of the peak current at 10 mV in presence of vehicle. The activity of the compounds was described as the ability to shift this current voltage relationship to more hyperpolarized potentials and is given as the maximum absolute shift possible at the tested concentrations (0.37, 1.11, 3.33, 10, 30 μM). Concentration response curves were plotted from the threshold shift at the individual concentrations and were fitted excel fit model 205 sigmodal dose-response model (fit=A+((B−A)/1+((C/x)^D)))), where A is the minimum value, B the maximum value, C the EC50 value and D the slope of the curve. The concentration needed to shift the threshold 5 mV was readout from this curve (ECdelta 5 mV).

ECdelta5mV	Max Delta threshold	SMILES
2000 nM	17 mV	Cc1ccc(S(=O)(=O)n2ccc(C(=O)NCc3ccon3)n2)cc1 [Compound 58, 1-(4-methylbenzene-1-sulfonyl)-N-[(1,2-oxazol-3-yl)methyl]-1H-pyrazole-3-carboxamide]
1400 nM	25 mV	COc1ccc(S(=O)(=O)n2ccc(C(=O)NCc3ccn(C)n3)n2)cc1 [Compound 44, 1-(4-methoxybenzene-1-sulfonyl)-N-[(1-methyl-1H-pyrazol-3-yl)methyl]-1H-pyrazole-3-carboxamide]
1800 nM	22 mV	Cc1ccc(S(=O)(=O)n2ccc(C(=O)NCc3cn(C)nn3)n2)cc1 [Compound 46, 1-(4-methylbenzene-1-sulfonyl)-N-[(1-methyl-1H-1,2,3-triazol-4-yl)methyl]-1H-pyrazole-3-carboxamide]
2400 nM	19 mV	COc1ccc(S(=O)(=O)n2ccc(C(=O)NCc3ncccc3F)n2)cc1 [Compound 86, N-[(3-fluoro-2-pyridyl)methyl]-1-(4-methoxyphenyl)sulfonyl-pyrazole-3-carboxamide]
1300 nM	22 mV	COc1ccc(S(=O)(=O)n2ccc(C(=O)NCc3nc(C)cs3)n2)cc1 [Compound 6, 1-(4-methoxybenzene-1-sulfonyl)-N-[(4-methyl-1,3-thiazol-2-yl)methyl]-1H-pyrazole-3-carboxamide]
2400 nM	29 mV	COc1ccc(S(=O)(=O)n2ccc(C(=O)NCc3cnc(C)nc3)n2)cc1 [Compound 11, 1-(4-methoxybenzene-1-sulfonyl)-N-[(2-methylpyrimidin-5-yl)methyl]-1H-pyrazole-3-carboxamide]
2900 nM	18 mV	COc1ccc(S(=O)(=O)n2ccc(C(=O)NCc3cncnc3)n2)cc1 [Compound 7, 1-(4-methoxybenzene-1-sulfonyl)-N-[(pyrimidin-5-yl)methyl]-1H-pyrazole-3-carboxamide]
3400 nM	15 mV	Cc1ccc(S(=O)(=O)n2ccc(C(=O)NCc3ncc(C)o3)n2)cc1 [Compound 30, 1-(4-methylbenzene-1-sulfonyl)-N-[(5-methyl-1,3-oxazol-2-yl)methyl]-1H-pyrazole-3-carboxamide]
2900 nM	16 mV	Cc1ccccc1S(=O)(=O)n1ccc(C(=O)NCc2ccn(C)n2)n1 [Compound 26, 1-(2-methylbenzene-1-sulfonyl)-N-[(1-methyl-1H-pyrazol-3-yl)methyl]-1H-pyrazole-3-carboxamide]
2000 nM	23 mV	Cc1ccc(S(=O)(=O)n2ccc(C(=O)NCc3cnccn3)n2)cc1 [Compound 24, 1-(4-methylbenzene-1-sulfonyl)-N-[(pyrazin-2-yl)methyl]-1H-pyrazole-3-carboxamide]
4900 nM	13 mV	Cc1ccc(S(=O)(=O)n2ccc(C(=O)NCc3ncon3)n2)cc1 [Compound 57, 1-(4-methylbenzene-1-sulfonyl)-N-[(1,2,4-oxadiazol-3-yl)methyl]-1H-pyrazole-3-carboxamide]
3300 nM	16 mV	Cc1ccc(S(=O)(=O)n2ccc(C(=O)NCc3cnoc3)n2)cc1 [Compound 51, 1-(4-methylbenzene-1-sulfonyl)-N-[(1,2-oxazol-4-yl)methyl]-1H-pyrazole-3-carboxamide]
1500 nM	17 mV	COc1ccc(S(=O)(=O)n2ccc(C(=O)NCc3ncc(C)o3)n2)cc1 [Compound 36, 1-(4-methoxybenzene-1-sulfonyl)-N-[(5-methyl-1,3-oxazol-2-yl)methyl]-1H-pyrazole-3-carboxamide]
1900 nM	20 mV	Cc1ccc(S(=O)(=O)n2ccc(C(=O)NCc3cn(C)cn3)n2)cc1 [Compound 53, 1-(4-methylbenzene-1-sulfonyl)-N-[(1-methyl-1H-imidazol-4-yl)methyl]-1H-pyrazole-3-carboxamide]
1500 nM	25 mV	Cc1cnc(CNC(=O)c2ccn(S(=O)(=O)c3ccc(Cl)cc3)n2)cn1 [Compound 76, 1-(4-chlorophenyl)sulfonyl-N-[(5-methylpyrazin-2-yl)methyl]pyrazole-3-carboxamide]
1800 nM	26 mV	COc1ccc(S(=O)(=O)n2ccc(C(=O)NCc3cnc(C)cn3)n2)cc1 [Compound 5, 1-(4-methoxybenzene-1-sulfonyl)-N-[(5-methylpyrazin-2-yl)methyl]-1H-pyrazole-3-carboxamide]
7700 nM	12 mV	Cc1cnc(CNC(=O)c2ccn(S(=O)(=O)c3ccccc3Cl)n2)cn1 [Compound 84, 1-(2-chlorophenyl)sulfonyl-N-[(5-methylpyrazin-2-yl)methyl]pyrazole-3-carboxamide]
3000 nM	23 mV	Cc1cnc(CNC(=O)c2ccn(S(=O)(=O)c3ccc(C(F)(F)F)cc3)n2)cn1 [Compound 78, N-[(5-methylpyrazin-2-yl)methyl]-1-[4-(trifluoromethyl)phenyl]sulfonyl-pyrazole-3-carboxamide]
3900 nM	13 mV	COc1ccc(S(=O)(=O)n2ccc(C(=O)NCc3cnoc3)n2)cc1 [Compound 9, 1-(4-methoxybenzene-1-sulfonyl)-N-[(1,2-oxazol-4-yl)methyl]-1H-pyrazole-3-carboxamide]
3300 nM	18 mV	Cc1ccc(CNC(=O)c2ccn(S(=O)(=O)c3ccccc3C)n2)nc1 [Compound 27, 1-(2-methylbenzene-1-sulfonyl)-N-[(5-methylpyridin-2-yl)methyl]-1H-pyrazole-3-carboxamide]
2100 nM	21 mV	COc1ccc(S(=O)(=O)n2ccc(C(=O)NCc3cnccn3)n2)cc1C [Compound 4, 1-(4-methoxy-3-methylbenzene-1-sulfonyl)-N-[(pyrazin-2-yl)methyl]-1H-pyrazole-3-carboxamide]
1600 nM	29 mV	COc1ccc(S(=O)(=O)n2ccc(C(=O)NCc3cnc(C)cn3)n2)c(Cl)c1 [Compound 82, 1-(2-chloro-4-methoxy-phenyl)sulfonyl-N-[(5-methylpyrazin-2-yl)methyl]pyrazole-3-carboxamide]
3000 nM	14 mV	Cc1ccc(S(=O)(=O)n2ccc(C(=O)NCc3nccs3)n2)cc1 [Compound 59, 1-(4-methylbenzene-1-sulfonyl)-N-[(1,3-thiazol-2-yl)methyl]-1H-pyrazole-3-carboxamide]
2400 nM	22 mV	Cc1ccccc1S(=O)(=O)n1ccc(C(=O)NCc2cnn(C)c2)n1 [Compound 28, 1-(2-methylbenzene-1-sulfonyl)-N-[(1-methyl-1H-pyrazol-4-yl)methyl]-1H-pyrazole-3-carboxamide]
3800 nM	16 mV	COc1ccc(S(=O)(=O)n2ccc(C(=O)NCc3ccon3)n2)cc1 [Compound 8, 1-(4-methoxybenzene-1-sulfonyl)-N-[(1,2-oxazol-3-yl)methyl]-1H-pyrazole-3-carboxamide]
